Data: patent US20130040882A1, “USE OF FIBROBLAST GROWTH FACTOR FRAGMENTS” (NOVARTIS AG, priority 2003, published 2013)
“Also recorded” adds a separate entry of the source.

How the values were obtained:
[1] = test system: gene expression in organs; experiment: Blind monkey trial of three peptides: gene expression profiling of organs on Affymetrix U95 chips; type: in vivo, cynomolgus monkeys; settings: 100 μg/animal/day sc, two weeks
[2] = Blind monkey trial of three peptides: biochemistry, clinical chemistry screening and histopathology; type: in vivo, cynomolgus monkeys; settings: 100 μg/animal/day sc, two weeks
Protocol: For the verification of the selected human proteins or peptides in cynomolgus monkeys, one control and four treated groups (i.e., each of three peptides and placebo) of two males and two females are treated for two weeks by daily administration of the proteins dissolved in autologous serum (e.g., in each animal's own serum) through the subcutaneous route. The administration of the peptides was blinded. The amount of peptide administered was 100 μg/animal/day (5-6 mg of peptide total).
Drug profiling in these non-human primates was analyzed using gene expression profiling of more than 100 organs on Affymetrix U95 chips (each containing ⅓ of the human genome). In addition, extensive biochemistry and clinical chemistry screening (>60 parameters) and histopathology (ca. 60 organs) were performed.

With “Peptide 2: gonadotrophin releasing hormone (QHWSYGLRPG; Gonadoliberin-1; UniProt P01148 24-33, looked up)” as the substance, how does the “Conclusions of the in vivo Profiling by the Data Mining Team: Function/Pathway” value [1] read?
The value was “Ovarian and testicular”.

What about the “Findings by the Data Mining Team: Adrenals (gene with direction)” value [1] of the same substance?
The value was “Follistatin+; also recorded: IGF2+; also recorded: catecholamines synthesis+; also recorded: activin A−/inhibin+”.

And the “Findings by the Data Mining Team: Bone marrow (gene with direction)” value [1]?
The value was “Macrophages+; also recorded: eosinophils+; also recorded: activin A−; also recorded: inhibin betaB+”.

And the “Findings by the Data Mining Team: Hypothalamus (gene with direction)” value [1]?
Its value is “Transthyretin+; also recorded: oxytocin”.

What about the “Findings by the Data Mining Team: Kidney (gene with direction)” value [1] of the same substance?
Its value is “Thiol protease inhibitor (aldosterone + in biochemistry), and +GAPDH and +STAT and +JAK and +TEGT”.

What about the “Findings by the Data Mining Team: Liver (gene with direction)” value [1] of the same substance?
Its value is “Activin A−; also recorded: inhibin betaB+; also recorded: lipid metabolism+; also recorded: glycolysis+; also recorded: follistatin+; also recorded: IDO1+; also recorded: VEGF−”.

What about the “Findings by the Data Mining Team: Mammary gland” value [1] of the same substance?
Its value is “Inconclusive; Sampling heterogenous”.

And the “Findings by the Data Mining Team: Ovary (gene with direction)” value [1]?
Its value is “Nuclear receptors−; also recorded: aromatase and estrogen synthase+; also recorded: activinA−; also recorded: inhibin beta B+”.

What about the “Findings by the Data Mining Team: Testis (gene with direction)” value [1] of the same substance?
The value was “CREM+”.

What about the “Findings by the Data Mining Team: Thymus (gene with direction)” value [1] of the same substance?
Its value is “Integrin alpha6+; also recorded: VAP1+; also recorded: lipid metabolism; also recorded: binding protein+,”.

What about the “Findings by the Data Mining Team: Thyroid (gene with direction)” value [1] of the same substance?
Its value is “Ocludin+; also recorded: thyroid hormone binding protein+; also recorded: THR alpha−”.

And the “Findings by the Data Mining Team: Biochemistry/Histopathology/Haematology (parameter with direction)” value [2]?
The value was “Slight increase in aldosterone”.
